According to US7592374B2, “Insecticidal nitromethylene compounds” (Crompton Corporation, priority 2005, dated 2009):

Assays:
Assay type in all cases: in vivo
Tetranychus urticae Koch [1] = test: Mite ovicide test (MIOV); conditions: 216 h, 1000 ppm spray to run off on cowpea leaves, unhatched eggs examined nine days following treatment, read-out: Percent Control MIOV (mite ovicide)
Description: In the following examples, a stock solution for the compounds of the present invention was prepared at 3000 ppm by dissolving 0.24 gram of each compound to be tested in eight mL of acetone and adding 72 mL of distilled water plus three drops of ethoxylated sorbitan monolaurate, a wetting agent. […] For each example that follows, the stock solution was used and the specificized dilutions made. All the tests discussed below, which involved treatment with compounds of this invention, were always repeated with controls, in which the active compound was not provided, to permit a comparison upon which the percent control was calculated. One day before treatment of cowpea primary leaves with the test solutions, a “Figure 8” configuration of tree tanglefoot was applied to each of two cowpea primary leaves, one from each of two plants in a pot. The circle nearer the stem was designated for the mite ovicide test and the circle further from the stem was designated for the mite adulticide test. Groups of adult mites (Tetranychus urticae Koch) were transferred into ovicide circles one day before treatment and the females were allowed to deposit eggs until one hour before treatment, at which point all the adults were removed. The plants were then sprayed to run off with a 1000 ppm of solution diluted from the 3000 ppm stock solution. Nine days following treatment the ovicide rings were examined for unhatched eggs and living immature mites. The percent control was estimated based on the number of unhatched eggs.

Helicoverpa virescens = test: Tobacco budworm test (TB); conditions: Heliothis virescens, 336 h; 0.2 mL of 3000 ppm stock solution on diet cell surface; second instar larva; after 14 days; corrected by Abbott's formula; read-out: Percent Control TB (tobacco budworm)
Description: In the following examples, a stock solution for the compounds of the present invention was prepared at 3000 ppm by dissolving 0.24 gram of each compound to be tested in eight mL of acetone and adding 72 mL of distilled water plus three drops of ethoxylated sorbitan monolaurate, a wetting agent. […] For each example that follows, the stock solution was used and the specificized dilutions made. All the tests discussed below, which involved treatment with compounds of this invention, were always repeated with controls, in which the active compound was not provided, to permit a comparison upon which the percent control was calculated.
For each compound tested, 0.2 mL of the stock solution prepared asdescribed above, was pipetted onto the surface of each of five diet cells, allowed to spread over the surfaces and air dried for two hours. Then a second instar Helicoverpa virescens larva was introduced into each cell. After 14 days, the number of living larvae was determined for each treatment and percent control, corrected by Abbott's formula, was calculated.

Tetranychus urticae Koch [2] = test: Mite adulticide test (MI); conditions: 120 h, 1000 ppm spray to run off on cowpea leaves, adult mites placed 1 day after treatment, live mites counted five days later, read-out: Percent Control MI (mite adulticide)
Description: In the following examples, a stock solution for the compounds of the present invention was prepared at 3000 ppm by dissolving 0.24 gram of each compound to be tested in eight mL of acetone and adding 72 mL of distilled water plus three drops of ethoxylated sorbitan monolaurate, a wetting agent. […] For each example that follows, the stock solution was used and the specificized dilutions made. All the tests discussed below, which involved treatment with compounds of this invention, were always repeated with controls, in which the active compound was not provided, to permit a comparison upon which the percent control was calculated. One day before treatment of cowpea primary leaves with the test solutions, a “Figure 8” configuration of tree tanglefoot was applied to each of two cowpea primary leaves, one from each of two plants in a pot. The circle nearer the stem was designated for the mite ovicide test and the circle further from the stem was designated for the mite adulticide test. Groups of adult mites (Tetranychus urticae Koch) were transferred into ovicide circles one day before treatment and the females were allowed to deposit eggs until one hour before treatment, at which point all the adults were removed. The plants were then sprayed to run off with a 1000 ppm of solution diluted from the 3000 ppm stock solution. One day following treatment of the plants with the test solution, groups of approximately 25 adult mites were transferred into the adulticide rings. Five days later, these rings were examined for live mites remaining on the leaves. The percent control was estimated based on the number of mites surviving on the control plants.

Compound	pest or weed control at 1000 ppm (Tetranychus urticae Koch [1]) [%]	pest or weed control at 3000 µg/mL (Helicoverpa virescens) [%]	pest or weed control at 1000 ppm (Tetranychus urticae Koch [2]) [%]
CC/C(=N\Nc1ccc2c(c1)c1ccccc1n2CC)[N+](=O)[O-] [Compound 11]	30	57	30
CC/C(=N\Nc1cccc(-c2ccccc2)c1)[N+](=O)[O-] [Compound 5]	0	0	100
COc1ccc(-c2ccccc2)cc1N/N=C/[N+](=O)[O-] [Compound 2]	0	100	0
CCCCCOc1ccc(-c2ccccc2)cc1N/N=C(/CC)[N+](=O)[O-] [Compound 6]	30	0	100
CC/C(=N\Nc1cc(-c2ccccc2)ccc1OC)[N+](=O)[O-] [Compound 1, Propanal, 1-nitro, (4-methoxy-[1,1′-biphenyl]-3-yl)hydrazone]	100	64	100
CC/C(=N/Nc1cc(-c2ccccc2)ccc1C)[N+](=O)[O-] [Compound 7]	70	0	100
COc1ccc(-c2ccccc2)cc1N/N=C(/C(C)C)[N+](=O)[O-] [Compound 4]	0	0	100
CCC/C(=N\Nc1cc(-c2ccccc2)ccc1OC)[N+](=O)[O-] [Compound 3]	100	0	100
CC/C(=N/Nc1ccc(Cl)nc1)[N+](=O)[O-] [Compound 12]	70	100	100
CC/C(=N/Nc1cc(OC)ccc1-c1ccccc1)[N+](=O)[O-] [Compound 9]	70	14	70
C/C(=N\Nc1ccc2c(c1)Cc1ccccc1-2)[N+](=O)[O-] [Compound 10]	0	0	0
CC(C)C/C(=N\Nc1cccc(-c2ccccc2)c1)[N+](=O)[O-] [Compound 8]	0	40	100
